Values of other authors as cited in patent US20240100064A1, “METHODS OF TREATING NEURODEVELOPMENTAL DISORDERS” (Woolsey Pharmaceuticals, Inc., priority 2020, published 2024).
Counter-ions that a name gives are not always drawn.

Columns and labels:
[1] = system: oligophrenin-1-deficient mice
[2] = in vivo, 1-hydroxy metabolite (Shibuya 2001)
[3] = oligophrenin-1-deficient mice (Allegra et al. 2017)
[4] = oligophrenin-1 deficient mice (Meziane et al. 2016)

half-life [2]	Compound	rescuing axon formation [1, 3]	spine density [1, 3]	hippocampal hyperexcitability ([1]; oligophrenin-1 deficient mice (Busti 2020))	behavioral changes [1, 4]	brain ventricular enlargement [1, 4]
–	O=S(=O)(c1cccc2cnccc12)N1CCCNCC1 [Fasudil, Hexahydro-1-(5-isoquinolinesulfonyl)-1H-1,4-diazepine monohydrochloride hemihydrate]	not effective	restored	rescue	reverse	reverse
about 8 hours	O=S(=O)(c1cccc2c(O)nccc12)N1CCCNCC1 [M3]	–	–	–	–	–
